Experiment: Blood lipid profiling, single-dose part (Supplementary Table 3)
Assay type: in vivo, human

## Cn1cnc(Cn2c(=O)[nH]/c(=N\c3cc4cn(C)nc4cc3Cl)n(Cc3cc(F)c(F)cc3F)c2=O)n1 [Ensitrelvir, ensitrelvir fumaric acid]
Cohort A 20 mg single dose, Day 2, baseline mean 0.8825
  Triglyceride, Mean (SD): 1.0032 mmol/L
Cohort A 20 mg single dose, Day 2, baseline mean 4.1635
  Cholesterol, Mean (SD): 4.2842 mmol/L
Cohort A 20 mg single dose, Day 2, baseline mean 460.0
  HDL-C, Mean (SD): 458.3 (47.9) mg/L
Cohort A 20 mg single dose, Day 2, baseline mean 993.3
  LDL-C, Mean (SD): 1048.3 mg/L
Cohort A 20 mg single dose, Day 4, baseline mean 0.8825
  Triglyceride, Mean (SD): 1.3643 mmol/L
Cohort A 20 mg single dose, Day 4, baseline mean 4.1635
  Cholesterol, Mean (SD): 4.2668 mmol/L
Cohort A 20 mg single dose, Day 4, baseline mean 460.0
  HDL-C, Mean (SD): 446.7 (63.1) mg/L
Cohort A 20 mg single dose, Day 4, baseline mean 993.3
  LDL-C, Mean (SD): 1026.7 mg/L
Cohort A 20 mg single dose, Day 7/Early termination, baseline mean 0.8825
  Triglyceride, Mean (SD): 1.3852 mmol/L
Cohort A 20 mg single dose, Day 7/Early termination, baseline mean 4.1635
  Cholesterol, Mean (SD): 4.1290 mmol/L
Cohort A 20 mg single dose, Day 7/Early termination, baseline mean 460.0
  HDL-C, Mean (SD): 440.0 (66.9) mg/L
Cohort A 20 mg single dose, Day 7/Early termination, baseline mean 993.3
  LDL-C, Mean (SD): 966.7 mg/L
Cohort A 20 mg single dose, Follow up, baseline mean 0.8825
  Triglyceride, Mean (SD): 0.7037 mmol/L
Cohort A 20 mg single dose, Follow up, baseline mean 4.1635
  Cholesterol, Mean (SD): 3.9048 mmol/L
Cohort A 20 mg single dose, Follow up, baseline mean 460.0
  HDL-C, Mean (SD): 445.0 (70.1) mg/L
Cohort A 20 mg single dose, Follow up, baseline mean 993.3
  LDL-C, Mean (SD): 923.3 mg/L
Cohort B 70 mg single dose, Day 2, baseline mean 1.0330
  Triglyceride, Mean (SD): 1.1478 mmol/L
Cohort B 70 mg single dose, Day 2, baseline mean 4.0987
  Cholesterol, Mean (SD): 4.1463 mmol/L
Cohort B 70 mg single dose, Day 2, baseline mean 436.7
  HDL-C, Mean (SD): 413.3 (42.7) mg/L
Cohort B 70 mg single dose, Day 2, baseline mean 995.0
  LDL-C, Mean (SD): 1041.7 mg/L
Cohort B 70 mg single dose, Day 4, baseline mean 1.0330
  Triglyceride, Mean (SD): 1.4170 mmol/L
Cohort B 70 mg single dose, Day 4, baseline mean 4.0987
  Cholesterol, Mean (SD): 4.0515 mmol/L
Cohort B 70 mg single dose, Day 4, baseline mean 436.7
  HDL-C, Mean (SD): 411.7 (52.3) mg/L
Cohort B 70 mg single dose, Day 4, baseline mean 995.0
  LDL-C, Mean (SD): 946.7 mg/L
Cohort B 70 mg single dose, Day 7/Early termination, baseline mean 1.0330
  Triglyceride, Mean (SD): 1.4393 mmol/L
Cohort B 70 mg single dose, Day 7/Early termination, baseline mean 4.0987
  Cholesterol, Mean (SD): 3.8145 mmol/L
Cohort B 70 mg single dose, Day 7/Early termination, baseline mean 436.7
  HDL-C, Mean (SD): 396.7 (60.2) mg/L
Cohort B 70 mg single dose, Day 7/Early termination, baseline mean 995.0
  LDL-C, Mean (SD): 881.7 mg/L
Cohort B 70 mg single dose, Follow up, baseline mean 1.0330
  Triglyceride, Mean (SD): 0.8882 mmol/L
Cohort B 70 mg single dose, Follow up, baseline mean 4.0987
  Cholesterol, Mean (SD): 3.7368 mmol/L
Cohort B 70 mg single dose, Follow up, baseline mean 436.7
  HDL-C, Mean (SD): 420.0 (55.1) mg/L
Cohort B 70 mg single dose, Follow up, baseline mean 995.0
  LDL-C, Mean (SD): 873.3 mg/L
Cohort C fasted state 250 mg single dose, Day 2 [Day 16], baseline mean 0.9596
  Triglyceride, Mean (SD): 1.3053 mmol/L
Cohort C fasted state 250 mg single dose, Day 2 [Day 16], baseline mean 4.1053
  Cholesterol, Mean (SD): 3.8918 mmol/L
Cohort C fasted state 250 mg single dose, Day 2 [Day 16], baseline mean 486.3
  HDL-C, Mean (SD): 376.3 (81.9) mg/L
Cohort C fasted state 250 mg single dose, Day 2 [Day 16], baseline mean 900.0
  LDL-C, Mean (SD): 916.3 mg/L
Cohort C fasted state 250 mg single dose, Day 4 [Day 18], baseline mean 0.9596
  Triglyceride, Mean (SD): 1.2235 mmol/L
Cohort C fasted state 250 mg single dose, Day 4 [Day 18], baseline mean 4.1053
  Cholesterol, Mean (SD): 3.9695 mmol/L
Cohort C fasted state 250 mg single dose, Day 4 [Day 18], baseline mean 486.3
  HDL-C, Mean (SD): 401.3 (66.4) mg/L
Cohort C fasted state 250 mg single dose, Day 4 [Day 18], baseline mean 900.0
  LDL-C, Mean (SD): 942.5 mg/L
Cohort C fasted state 250 mg single dose, Day 7 [Day 21]/Early termination, baseline mean 0.9596
  Triglyceride, Mean (SD): 1.0571 mmol/L
Cohort C fasted state 250 mg single dose, Day 7 [Day 21]/Early termination, baseline mean 4.1053
  Cholesterol, Mean (SD): 4.0019 mmol/L
Cohort C fasted state 250 mg single dose, Day 7 [Day 21]/Early termination, baseline mean 486.3
  HDL-C, Mean (SD): 438.8 (76.6) mg/L
Cohort C fasted state 250 mg single dose, Day 7 [Day 21]/Early termination, baseline mean 900.0
  LDL-C, Mean (SD): 923.8 mg/L
Cohort C fasted state 250 mg single dose, Follow up (n 4), baseline mean 0.9596
  Triglyceride, Mean (SD): 0.6295 mmol/L
Cohort C fasted state 250 mg single dose, Follow up (n 4), baseline mean 4.1053
  Cholesterol, Mean (SD): 3.9760 mmol/L
Cohort C fasted state 250 mg single dose, Follow up (n 4), baseline mean 486.3
  HDL-C, Mean (SD): 445.0 mg/L
Cohort C fasted state 250 mg single dose, Follow up (n 4), baseline mean 900.0
  LDL-C, Mean (SD): 977.5 mg/L
Cohort D 500 mg single dose, Day 2, baseline mean 0.7507
  Triglyceride, Mean (SD): 1.2928 mmol/L
Cohort D 500 mg single dose, Day 2, baseline mean 4.2838
  Cholesterol, Mean (SD): 3.9005 mmol/L
Cohort D 500 mg single dose, Day 2, baseline mean 546.7
  HDL-C, Mean (SD): 330.0 mg/L
Cohort D 500 mg single dose, Day 2, baseline mean 990.0
  LDL-C, Mean (SD): 951.7 mg/L
Cohort D 500 mg single dose, Day 4, baseline mean 0.7507
  Triglyceride, Mean (SD): 1.1327 mmol/L
Cohort D 500 mg single dose, Day 4, baseline mean 4.2838
  Cholesterol, Mean (SD): 3.8273 mmol/L
Cohort D 500 mg single dose, Day 4, baseline mean 546.7
  HDL-C, Mean (SD): 340.0 (74.8) mg/L
Cohort D 500 mg single dose, Day 4, baseline mean 990.0
  LDL-C, Mean (SD): 950.0 mg/L
Cohort D 500 mg single dose, Day 7/Early termination, baseline mean 0.7507
  Triglyceride, Mean (SD): 0.9937 mmol/L
Cohort D 500 mg single dose, Day 7/Early termination, baseline mean 4.2838
  Cholesterol, Mean (SD): 3.8103 mmol/L
Cohort D 500 mg single dose, Day 7/Early termination, baseline mean 546.7
  HDL-C, Mean (SD): 421.7 (83.8) mg/L
Cohort D 500 mg single dose, Day 7/Early termination, baseline mean 990.0
  LDL-C, Mean (SD): 928.3 mg/L
Cohort D 500 mg single dose, Follow up, baseline mean 0.7507
  Triglyceride, Mean (SD): 0.5627 mmol/L
Cohort D 500 mg single dose, Follow up, baseline mean 4.2838
  Cholesterol, Mean (SD): 3.6505 mmol/L
Cohort D 500 mg single dose, Follow up, baseline mean 546.7
  HDL-C, Mean (SD): 450.0 (85.1) mg/L
Cohort D 500 mg single dose, Follow up, baseline mean 990.0
  LDL-C, Mean (SD): 843.3 mg/L
Cohort E 1000 mg single dose, Day 2, baseline mean 1.0275
  Triglyceride, Mean (SD): 2.3427 mmol/L
Cohort E 1000 mg single dose, Day 2, baseline mean 4.1332
  Cholesterol, Mean (SD): 3.5257 mmol/L
Cohort E 1000 mg single dose, Day 2, baseline mean 413.3
  HDL-C, Mean (SD): 166.7 (45.5) mg/L
Cohort E 1000 mg single dose, Day 2, baseline mean 986.7
  LDL-C, Mean (SD): 840.0 mg/L
Cohort E 1000 mg single dose, Day 4, baseline mean 1.0275
  Triglyceride, Mean (SD): 1.9683 mmol/L
Cohort E 1000 mg single dose, Day 4, baseline mean 4.1332
  Cholesterol, Mean (SD): 3.2498 mmol/L
Cohort E 1000 mg single dose, Day 4, baseline mean 413.3
  HDL-C, Mean (SD): 180.0 (52.5) mg/L
Cohort E 1000 mg single dose, Day 4, baseline mean 986.7
  LDL-C, Mean (SD): 800.0 mg/L
Cohort E 1000 mg single dose, Day 7/Early termination, baseline mean 1.0275
  Triglyceride, Mean (SD): 1.2210 mmol/L
Cohort E 1000 mg single dose, Day 7/Early termination, baseline mean 4.1332
  Cholesterol, Mean (SD): 3.7628 mmol/L
Cohort E 1000 mg single dose, Day 7/Early termination, baseline mean 413.3
  HDL-C, Mean (SD): 303.3 (61.5) mg/L
Cohort E 1000 mg single dose, Day 7/Early termination, baseline mean 986.7
  LDL-C, Mean (SD): 1003.3 mg/L
Cohort E 1000 mg single dose, Follow up, baseline mean 1.0275
  Triglyceride, Mean (SD): 0.7565 mmol/L
Cohort E 1000 mg single dose, Follow up, baseline mean 4.1332
  Cholesterol, Mean (SD): 3.7410 mmol/L
Cohort E 1000 mg single dose, Follow up, baseline mean 413.3
  HDL-C, Mean (SD): 343.3 (47.2) mg/L
Cohort E 1000 mg single dose, Follow up, baseline mean 986.7
  LDL-C, Mean (SD): 988.3 mg/L
Cohort J 2000 mg single dose, Day 2, baseline mean 0.9975
  Triglyceride, Mean (SD): 2.0737 mmol/L
Cohort J 2000 mg single dose, Day 2, baseline mean 4.4608
  Cholesterol, Mean (SD): 3.9952 mmol/L
Cohort J 2000 mg single dose, Day 2, baseline mean 543.3
  HDL-C, Mean (SD): 225.0 (76.6) mg/L
Cohort J 2000 mg single dose, Day 2, baseline mean 1051.7
  LDL-C, Mean (SD): 901.7 mg/L
Cohort J 2000 mg single dose, Day 4, baseline mean 0.9975
  Triglyceride, Mean (SD): 1.7668 mmol/L
Cohort J 2000 mg single dose, Day 4, baseline mean 4.4608
  Cholesterol, Mean (SD): 3.4133 mmol/L
Cohort J 2000 mg single dose, Day 4, baseline mean 543.3
  HDL-C, Mean (SD): 171.7 (55.6) mg/L
Cohort J 2000 mg single dose, Day 4, baseline mean 1051.7
  LDL-C, Mean (SD): 865.0 mg/L
Cohort J 2000 mg single dose, Day 7/Early termination, baseline mean 0.9975
  Triglyceride, Mean (SD): 0.7867 mmol/L
Cohort J 2000 mg single dose, Day 7/Early termination, baseline mean 4.4608
  Cholesterol, Mean (SD): 3.9437 mmol/L
Cohort J 2000 mg single dose, Day 7/Early termination, baseline mean 543.3
  HDL-C, Mean (SD): 253.3 mg/L
Cohort J 2000 mg single dose, Day 7/Early termination, baseline mean 1051.7
  LDL-C, Mean (SD): 1135.0 mg/L
Cohort J 2000 mg single dose, Follow up, baseline mean 0.9975
  Triglyceride, Mean (SD): 0.4255 mmol/L
Cohort J 2000 mg single dose, Follow up, baseline mean 4.4608
  Cholesterol, Mean (SD): 3.7112 mmol/L
Cohort J 2000 mg single dose, Follow up, baseline mean 543.3
  HDL-C, Mean (SD): 405.0 (45.9) mg/L
Cohort J 2000 mg single dose, Follow up, baseline mean 1051.7
  LDL-C, Mean (SD): 951.7 mg/L
